# Assay results published in publication PMC6934184, “Selective DNA-PKcs inhibition extends the therapeutic index of localized radiotherapy and chemotherapy” (The Journal of Clinical Investigation, 2019).
# Biological target: T1, TEK (Tie2) (Homo sapiens, UniProt Q02763)
# T1 construct: purchased Thermo Fisher Scientific (Life Technologies) SelectScreen
# Experiment: SelectScreen Z'LYTE
# Format: biochemical
# How it was run: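 SelectScreen broad panel; activity (Z'LYTE, Adapta) plus binding formats. ATP: Km app for CSF1R Z'LYTE; 10 for CAMK1 Adapta. Readout = % per kinase.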
# T1 sequence (Q02763 23-1124): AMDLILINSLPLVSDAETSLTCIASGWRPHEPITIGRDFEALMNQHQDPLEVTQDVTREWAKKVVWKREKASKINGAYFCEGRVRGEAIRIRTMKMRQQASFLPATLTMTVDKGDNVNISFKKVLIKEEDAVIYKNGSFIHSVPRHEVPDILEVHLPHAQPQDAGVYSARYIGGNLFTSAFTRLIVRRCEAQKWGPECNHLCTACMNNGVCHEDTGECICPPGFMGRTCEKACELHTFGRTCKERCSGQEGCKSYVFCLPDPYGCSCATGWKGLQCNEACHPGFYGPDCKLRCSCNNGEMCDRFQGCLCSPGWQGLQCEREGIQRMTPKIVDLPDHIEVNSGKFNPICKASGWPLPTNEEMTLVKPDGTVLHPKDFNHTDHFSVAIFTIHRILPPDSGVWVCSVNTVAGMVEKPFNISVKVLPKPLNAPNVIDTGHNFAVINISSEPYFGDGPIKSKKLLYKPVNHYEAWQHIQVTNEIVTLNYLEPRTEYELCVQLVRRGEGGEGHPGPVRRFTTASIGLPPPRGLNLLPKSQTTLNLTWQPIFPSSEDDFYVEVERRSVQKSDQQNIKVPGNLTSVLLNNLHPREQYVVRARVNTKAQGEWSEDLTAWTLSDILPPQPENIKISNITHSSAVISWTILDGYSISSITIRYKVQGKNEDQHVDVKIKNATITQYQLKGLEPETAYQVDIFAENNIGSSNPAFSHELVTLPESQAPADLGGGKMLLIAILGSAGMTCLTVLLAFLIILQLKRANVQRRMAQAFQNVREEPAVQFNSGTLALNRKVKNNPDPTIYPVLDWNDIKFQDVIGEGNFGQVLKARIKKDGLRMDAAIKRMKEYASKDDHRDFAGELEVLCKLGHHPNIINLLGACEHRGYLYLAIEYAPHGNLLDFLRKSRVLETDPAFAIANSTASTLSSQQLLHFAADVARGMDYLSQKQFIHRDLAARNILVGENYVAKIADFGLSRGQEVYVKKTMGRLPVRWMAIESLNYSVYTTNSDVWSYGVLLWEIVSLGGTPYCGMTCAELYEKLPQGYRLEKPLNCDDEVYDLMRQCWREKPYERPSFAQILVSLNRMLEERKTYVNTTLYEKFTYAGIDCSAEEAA
smiles,measurement,value
CN(C(=O)CN1CCOCC1)c1ccc2sc3c(-c4cccc5c(=O)cc(N6CC7CCC(C6)O7)oc45)cccc3c2c1 [NU5455],inhibition at 1 µM,-0.1%
